Experimental findings from patent publication US20220370496A1, “HER3 PULSED DC1 THERAPY” (H. LEE MOFFITT CANCER CENTER AND RESEARCH INSTITUTE, INC., priority 2019, published 2022) are described below.

In the assay the test system is MT901. The assay is described as follows: Intratumoral HER3-DC1 in combination with Taxol. It counts as in vivo, mouse. The conditions noted are these: 30 days after tumor cells were transferred.

Description: Taxol alone group received two injections of taxol. DC alone group received DCs once weekly beginning on day 5. DC+Taxol group received two injections of taxol before beginning DC treatment.
MT901, a mouse TNBC cell line, was injected in Balb/c mice and treatment began once tumors were palpable. HER3-DC1 vaccine was injected intratumorally once a week for six weeks. HER3 immune responses were measured in spleens, lymph nodes, and tumors post-vaccination. […] To investigate how the peptides would perform in the context of a therapeutic treatment of an established cancer, 5×10^5 MT901 cells were delivered to a Balb/c mouse s.c. and 5 days later weekly administration of 1×10^6 HER3 pulsed DC cells began and continued for six weeks (FIG. 8). […] To determine if the therapeutic or preventive effect could be improved in combination with an anti-cancer agent, mice were administered HER3-pulsed DC1 in combination with Taxol.

In the case of `CC(=O)O[C@H]1C(=O)[C@@]2(C)[C@H]([C@H](OC(=O)c3ccccc3)[C@]3(O)C[C@H](OC(=O)[C@H](O)[C@@H](NC(=O)c4ccccc4)c4ccccc4)C(C)=C1C3(C)C)[C@]1(OC(C)=O)CO[C@@H]1C[C@@H]2O` [taxol, Paclitaxel], the established tumors result is “had established tumors”.
